Data: PubChem BioAssay (NCI)
Several values for one entry are separate records, joined by “and”; a condition that tells them apart may be missing. Equal values may be shown once.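 Values below derive from 48-hour exposures of cells grown in 96-well plates, with endpoints linearly interpolated between the two concentrations bracketing the appropriate inhibition level. The concentration for 50% growth inhibition is given as GI50. TGI: total growth inhibition.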

What follows are molecules tested on HT29 colon (assay: inhibition of tumour cell growth, NCI panel, 48 h).
`CN1CCN(C(=O)OCc2nc3c(N4CCOCC4)nc(Cl)nc3n2C)CC1` was tested, and the GI50 was 0.898 µM and the TGI was 3.17 µM.
For `COC(=O)[C@]12CC[C@@H](C)[C@H](C)[C@@H]1C1=CC[C@@H]3[C@@]4(C)C/C(=N\O)[C@H](O)[C@@]5(C)COC(=C45)C[C@@]3(C)[C@]1(C)CC2`, the GI50 was 2.88 µM and the TGI was 9.31 µM.
For `Oc1c(CN2CCC(N3CCCCC3)CC2)cc(Cc2cc(CN3CCC(N4CCCCC4)CC3)c(O)c3ncccc23)c2cccnc12`, the GI50 was 1.07 µM and the TGI was 5.39 µM.
For `Cn1c2ccccc2c2c(-c3ccccc3)[n+]3ccncc3nc21`, the GI50 was > 100 µM and the TGI was > 100 µM.
With `C[C@@H]1OC(O)[C@@H](F)[C@H](O)[C@@H]1O` (some centres not stated) the GI50 was > 100 µM and the TGI was > 100 µM.
For `NC(=O)c1ccc(I)c(N)c1`, the GI50 was > 100 µM and the TGI was > 100 µM.
In the case of `C=C1C(=O)O[C@H]2[C@H]1CC/C(Cn1cc(-c3ccc(OC)cc3)nn1)=C\CC[C@@]1(C)O[C@@H]21`, the GI50 is reported as 1.23 µM and the TGI is reported as 2.86 µM.
For `O=C1CCCCN1CCCCC#Cc1ccccc1C#Cc1ccc([N+](=O)[O-])cc1`, the GI50 was 3.74 µM and the TGI was 59.6 µM.
Molecule `CCOc1cc2c(Cl)ncnc2c(OCC)c1OCC` has a GI50 of 7.59 µM and a TGI of 32.9 µM.
Work on `Oc1ccc2ccccc2c1N=Nc1nccs1` yielded a GI50 of 1.72 µM and a TGI of 23.3 µM.
In the case of `CC(=O)OCCN1c2ccccc2Sc2cnccc21`, the TGI is reported as > 10 µM.
With `Cn1c(=O)c2[nH]c(SCc3ccccn3)nc2n(C)c1=S` the TGI was > 100 µM.
For `COc1cc2c(c(O)c1Br)C(=O)c1c(O)cc(C[C@H](C)O)cc1[C@H]2[C@H]1c2cc(C[C@H](C)O)cc(O)c2C(=O)c2c1cc(OC)c(Br)c2O`, the GI50 was 2.39 µM and 4.83 µM and the TGI was 67.5 µM and > 100 µM.
`COc1ccc(-c2cc(=O)c3ccc(O)cc3o2)cc1OC` was tested, and the TGI was > 100 µM.
For `FC(F)(F)c1cccc(Nc2nccc(-c3cnn4nc(-c5ccccc5)ccc34)n2)c1`, the GI50 was 6.88 µM and the TGI was > 18.4 µM.
Molecule `CCC(C)c1c(Cl)nc(Cl)nc1Cl` (configuration not stated) has a TGI of 24.1 µM.
In the case of `Oc1ccc(CN2CCC(N3CCCCC3)CC2)c2cccnc12`, the GI50 is reported as 93.7 µM and the TGI is reported as > 100 µM.
In the case of `CS(=O)(=O)c1ccc([C@H]2O[C@@H](CO)C[C@]2(O)c2ccc(S(C)(=O)=O)cc2)cc1`, the GI50 is reported as > 100 µM and the TGI is reported as > 100 µM.
`COc1ccc(-c2cc(=O)c3c(OC)c(OC)c(OC)cc3o2)cc1` was tested, and the TGI was 99.5 µM.

What follows are molecules tested on SF-295 CNS (assay: inhibition of tumour cell growth, NCI panel, 48 h).
Work on `CN1CCN(C(=O)OCc2nc3c(N4CCOCC4)nc(Cl)nc3n2C)CC1` yielded a GI50 of 8.35 µM and a TGI of 20.7 µM.
For `COC(=O)[C@]12CC[C@@H](C)[C@H](C)[C@@H]1C1=CC[C@@H]3[C@@]4(C)C/C(=N\O)[C@H](O)[C@@]5(C)COC(=C45)C[C@@]3(C)[C@]1(C)CC2`, the GI50 was 4.82 µM and the TGI was 17.1 µM.
With `Oc1c(CN2CCC(N3CCCCC3)CC2)cc(Cc2cc(CN3CCC(N4CCCCC4)CC3)c(O)c3ncccc23)c2cccnc12` the GI50 was 1.64 µM and the TGI was 3.58 µM.
In the case of `Cn1c2ccccc2c2c(-c3ccccc3)[n+]3ccncc3nc21`, the GI50 is reported as > 100 µM and the TGI is reported as > 100 µM.
For `C[C@@H]1OC(O)[C@@H](F)[C@H](O)[C@@H]1O` (some centres not stated), the GI50 was > 100 µM and the TGI was > 100 µM.
`NC(=O)c1ccc(I)c(N)c1` was tested, and the GI50 was > 100 µM and the TGI was > 100 µM.
Work on `O=C(/C(Br)=C/c1ccccc1)c1ccccc1` yielded a GI50 of 11.8 µM and a TGI of 25.9 µM.
In the case of `C=C1C(=O)O[C@H]2[C@H]1CC/C(Cn1cc(-c3ccc(OC)cc3)nn1)=C\CC[C@@]1(C)O[C@@H]21`, the GI50 is reported as 11 µM and the TGI is reported as 23.7 µM.
With `CCOc1cc2c(Cl)ncnc2c(OCC)c1OCC` the GI50 was 9.25 µM and the TGI was 29.2 µM.
For `Oc1ccc2ccccc2c1N=Nc1nccs1`, the GI50 was 3.93 µM and the TGI was > 57.4 µM.
In the case of `CC(=O)OCCN1c2ccccc2Sc2cnccc21`, the TGI is reported as > 10 µM.
In the case of `Cn1c(=O)c2[nH]c(SCc3ccccn3)nc2n(C)c1=S`, the TGI is reported as > 100 µM.
With `COc1cc2c(c(O)c1Br)C(=O)c1c(O)cc(C[C@H](C)O)cc1[C@H]2[C@H]1c2cc(C[C@H](C)O)cc(O)c2C(=O)c2c1cc(OC)c(Br)c2O` the GI50 was 8 µM and 10.2 µM and the TGI was 21.5 µM and 22.4 µM.
`COc1ccc(-c2cc(=O)c3ccc(O)cc3o2)cc1OC` was tested, and the TGI was > 100 µM.
`FC(F)(F)c1cccc(Nc2nccc(-c3cnn4nc(-c5ccccc5)ccc34)n2)c1` was tested, and the GI50 was > 16.6 µM and the TGI was > 25 µM.
`CCC(C)c1c(Cl)nc(Cl)nc1Cl` (configuration not stated) was tested, and the TGI was 42.2 µM.
For `Oc1ccc(CN2CCC(N3CCCCC3)CC2)c2cccnc12`, the GI50 was 68.3 µM and the TGI was > 100 µM.
With `CS(=O)(=O)c1ccc([C@H]2O[C@@H](CO)C[C@]2(O)c2ccc(S(C)(=O)=O)cc2)cc1` the GI50 was > 100 µM and the TGI was > 100 µM.
For `COc1ccc(-c2cc(=O)c3c(OC)c(OC)c(OC)cc3o2)cc1`, the TGI was 96.9 µM.

The molecules below were run on SK-MEL-2 melanoma (assay: inhibition of tumour cell growth, NCI panel, 48 h).
With `CN1CCN(C(=O)OCc2nc3c(N4CCOCC4)nc(Cl)nc3n2C)CC1` the GI50 was 1.62 µM and the TGI was 3.45 µM.
`COC(=O)[C@]12CC[C@@H](C)[C@H](C)[C@@H]1C1=CC[C@@H]3[C@@]4(C)C/C(=N\O)[C@H](O)[C@@]5(C)COC(=C45)C[C@@]3(C)[C@]1(C)CC2` gave a GI50 of 13.4 µM and a TGI of 28.9 µM.
In the case of `Oc1c(CN2CCC(N3CCCCC3)CC2)cc(Cc2cc(CN3CCC(N4CCCCC4)CC3)c(O)c3ncccc23)c2cccnc12`, the GI50 is reported as 2.21 µM and the TGI is reported as 7.04 µM.
`Cn1c2ccccc2c2c(-c3ccccc3)[n+]3ccncc3nc21` was tested, and the GI50 was 55 µM and the TGI was > 100 µM.
In the case of `C[C@@H]1OC(O)[C@@H](F)[C@H](O)[C@@H]1O` (some centres not stated), the GI50 is reported as > 100 µM and the TGI is reported as > 100 µM.
In the case of `NC(=O)c1ccc(I)c(N)c1`, the GI50 is reported as > 100 µM and the TGI is reported as > 100 µM.
Work on `O=C(/C(Br)=C/c1ccccc1)c1ccccc1` yielded a GI50 of 3.17 µM and a TGI of 7.38 µM.
`C=C1C(=O)O[C@H]2[C@H]1CC/C(Cn1cc(-c3ccc(OC)cc3)nn1)=C\CC[C@@]1(C)O[C@@H]21` gave a GI50 of 1.95 µM and a TGI of 4.61 µM.
